Laboratory results: patent US9650417B2, “Treatments for gastrointestinal disorders” (Ironwood Pharmaceuticals, Inc., priority 2011, dated 2017)
pEC50: −log10 of the molar value. Bridge positions count the residues as written; N and C are the ends. Square brackets hold non-standard residues; d marks the D form. Peptide text beside a SMILES is read from it. pS = N[C@@H](COP(=O)(O)O)C(=O)O

Columns and labels:
[1] = In vitro metabolism in mouse jejunum loop fluid; format: in vitro ADME; conditions: for metabolism in control reaction: 120 minute incubation; for degradation rate compared with peptide 2: mouse intestinal fluid
Protocol: The purpose of this study was to determine the stability of phosphorylated peptides in mouse jejunal loop fluid. […] The isotopically labeled peptide 2 was synthesized with ^13C, ^15N-labeled alanine and leucine (i.e., with a sequence CCpS[^13C6, ^15N]LCCNP[^13C6, ^15N]ACTGC).
Each peptide was synthesized by American Peptide Company, Inc., and was stored desiccated at −20° C. A 1 mg/mL solution for each of the non-labeled peptides was prepared in 1 M tris(hydroxymethyl)aminomethane hydrochloride (Tris-HCl), pH 8 just prior to conducting the mouse intestinal loop fluid assay. A 500 ng/mL solution of ^13C, ^15N-labeled peptide 2 was prepared in 0.1% formic acid in water and was utilized to dilute the jejunum samples for post-assay LC-MS/MS analysis.
To collect the fluid, mice were fasted overnight with full access to water. They were then anesthetized with isofluorane for surgery and subjected to laparotomy in which the small intestine was exteriorized. Jejunum loops of 3 to 4 cm in length were made with sutures starting at 7 cm from the pyloric sphincter of the stomach. Once the loops were formed, they were injected with 200 μL of phosphate buffered saline (PBS) buffer (10 mM, pH 7.4). The abdominal wall and skin of the animals were then sutured, and the animals were allowed to recover for 30 minutes. Following recovery, the animals were sacrificed, the loops were then excised and the fluid inside was recovered and stored at −80° C. until use.
For each peptide, 25 μL of the 1 mg/mL peptide stock solution was added to 25 μL of 1 M Tris-HCl and 25 μL of 10× calf intestinal phosphatase (CIP) buffer containing 500 mM Tris-HCl, 1 M sodium chloride (NaCl), 0.1 mM magnesium chloride (MgCl2), pH 8. The reactions were initiated by adding 175 μL of the mouse jejunum loop fluid or 175 μL of the 1 M Tris-HCl pH8 buffer for the control reactions. The final concentration of each peptide was 100 μg/mL. The reactions were continuously mixed and maintained at 37° C. on a plate shaker. At 0, 2, 5, 10, 20, 30, 60, 90 and 120 minutes after adding the mouse intestinal loop fluid, a 25 μL aliquot was taken and added to 25 μL of 4° C. 12% trichloroacetic acid to stop the reaction. An additional 200 μL of 0.1% formic acid in water was added to these reactions for dilution purposes. These samples were then further diluted by taking 20 μL of each sample and adding it to 480 μL of 0.1% formic acid in water containing 500 ng/mL of the internal standard 13C, 15N-labeled peptide 2.
All samples were analyzed using an Applied Biosystems/MDS SCIEX API 4000 triple quadrupole mass spectrometer equipped with a high-performance liquid chromatography (HPLC) system. The mass spectrometer was operated in multiple reaction monitoring (MRM) mode, with resolution set to 1.2 Da.
The LC-MS/MS data were processed using Analyst version 1.4.2 software (Applied Biosystems/MDS SCIEX). The peak area ratio (ratio of analyte peak area to internal standard peak area) was used to calculate the percent remaining of each peptide.

[2] = biological target: T1, Calf intestinal alkaline phosphatase (CIP) (Bos taurus, UniProt P19111); assay: Alkaline phosphatase reaction (dephosphorylation of peptide substrates); format: in vitro ADME; conditions: with and without calf intestinal alkaline phosphatase; data not shown
T1 construct: purchased New England BioLabs, Ipswich, Mass; MO290S
T1 sequence (P19111 20-506): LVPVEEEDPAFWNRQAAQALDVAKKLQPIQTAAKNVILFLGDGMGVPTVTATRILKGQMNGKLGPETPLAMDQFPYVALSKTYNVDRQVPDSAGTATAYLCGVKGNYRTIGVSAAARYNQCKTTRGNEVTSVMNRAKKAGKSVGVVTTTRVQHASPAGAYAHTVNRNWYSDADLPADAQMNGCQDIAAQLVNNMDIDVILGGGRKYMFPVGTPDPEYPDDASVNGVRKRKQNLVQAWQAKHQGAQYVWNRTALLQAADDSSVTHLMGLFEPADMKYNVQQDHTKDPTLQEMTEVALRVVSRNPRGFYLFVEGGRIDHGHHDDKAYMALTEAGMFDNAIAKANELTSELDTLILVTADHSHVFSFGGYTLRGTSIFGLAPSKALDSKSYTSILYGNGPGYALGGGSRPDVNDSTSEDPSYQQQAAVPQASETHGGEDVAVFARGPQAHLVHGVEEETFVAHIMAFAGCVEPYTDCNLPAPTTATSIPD
Protocol: For the alkaline phosphatase reactions, peptide stocks were prepared at 1 mg/mL in 0.1 M Tris-HCl pH 8, which were stored at −20° C. until assays were conducted. For the acid phosphatase reactions, peptide stocks were prepared at 1 mg/mL in 50 mM sodium phosphate pH 6, which was stored at −20° C. until assays were conducted.
Calf intestinal alkaline phosphatase (CIP) was obtained from New England BioLabs, Ipswich, Mass. Cat # MO290S. The CIP reaction solution was prepared by dilution with buffer (50 mM KCl, 10 mM Tris-HCl pH 8, 1 mM MgCl2, 50% glycerol) to 0.5 units/μL. The alkaline phosphatase reaction solutions were assembled in 20 μL quantities containing:
2 μL 10×CIP buffer (1M NaCl, 500 mM Tris-HCl pH 8, 100 mM MgCl2)
2 μL peptide stock (1 mg/mL)
4 μL alkaline phosphatase (0, 0.5 or 2 units)
The reaction solutions were mixed gently and incubated for 90 minutes at 37° C. These reaction solutions were stored at −20° C. until analysis. For analysis, the reaction solutions were diluted from 7.5 μL of CIP treated peptide to 50 μL with 0.1% formic acid in water to a final concentration of 10 μM.
Control reactions were assembled for enzyme activity containing 10 mM p-nitrophenylphosphate in place of peptide. After incubation, the reactions were diluted with 0.1 mL of 100 mM borate buffer pH 9 and read at the absorbance of 405 nm to monitor p-nitrophenol appearance.

GC-C = biological target: T2, GC-C (Homo sapiens, UniProt P25092); assay: cGMP accumulation in T84 cells for analysis of GC-C activity; format: cell-based
T2 construct: endogenous in cells; host or cells: T84 cells
T2 sequence (P25092 24-1073): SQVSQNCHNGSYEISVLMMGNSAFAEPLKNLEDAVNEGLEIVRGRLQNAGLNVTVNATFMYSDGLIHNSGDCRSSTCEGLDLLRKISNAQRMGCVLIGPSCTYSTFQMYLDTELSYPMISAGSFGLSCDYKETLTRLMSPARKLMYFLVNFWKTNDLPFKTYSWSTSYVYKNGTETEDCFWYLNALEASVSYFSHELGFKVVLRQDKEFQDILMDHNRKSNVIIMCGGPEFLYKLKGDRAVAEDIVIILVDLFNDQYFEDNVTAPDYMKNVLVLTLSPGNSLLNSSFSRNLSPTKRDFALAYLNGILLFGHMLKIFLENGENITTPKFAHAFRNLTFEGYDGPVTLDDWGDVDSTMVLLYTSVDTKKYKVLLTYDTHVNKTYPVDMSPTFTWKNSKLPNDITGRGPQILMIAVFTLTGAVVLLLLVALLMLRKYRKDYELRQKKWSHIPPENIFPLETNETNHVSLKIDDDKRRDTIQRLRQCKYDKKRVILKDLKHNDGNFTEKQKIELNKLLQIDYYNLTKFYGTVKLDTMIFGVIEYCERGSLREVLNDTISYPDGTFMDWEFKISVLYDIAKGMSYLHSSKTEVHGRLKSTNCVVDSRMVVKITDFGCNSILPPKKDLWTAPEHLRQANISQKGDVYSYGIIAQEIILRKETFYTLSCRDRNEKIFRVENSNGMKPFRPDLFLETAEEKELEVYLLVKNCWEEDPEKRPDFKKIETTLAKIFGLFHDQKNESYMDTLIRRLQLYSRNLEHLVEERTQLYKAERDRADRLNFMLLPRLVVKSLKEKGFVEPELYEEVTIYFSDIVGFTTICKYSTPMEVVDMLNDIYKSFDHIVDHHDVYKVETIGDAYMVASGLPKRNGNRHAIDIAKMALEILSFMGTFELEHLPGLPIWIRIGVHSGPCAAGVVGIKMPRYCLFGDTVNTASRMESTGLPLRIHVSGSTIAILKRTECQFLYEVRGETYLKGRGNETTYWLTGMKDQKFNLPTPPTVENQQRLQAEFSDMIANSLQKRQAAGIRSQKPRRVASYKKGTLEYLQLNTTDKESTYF
Protocol: For the cGMP assay, 4.5×10^5 cells/mL of T84 cells were grown overnight in 24 well tissue culture plates. […] After the second wash, the cells were incubated with 450 μL of 1 mM isobutylmethylxanthine (IBMX) in either the pH 5 or pH 8 buffers for 10 minutes at 37° C. to inhibit any phosphodiesterase activity. The peptides were then diluted in either pH 5 or pH 8 buffer to a 10× concentration. The peptide solution of 50 μL was diluted to a final volume of 500 μL with the T84 cells, bringing each peptide concentration to 1×. An eleven point curve analysis was conducted for each peptide, with final peptide concentrations tested in each assay, in nM: 10000, 3000, 1000, 300, 100, 30, 10, 3, 1, 0.3, 0.1.
There was no peptide control used to determine endogenous levels of cGMP. Peptides were incubated for 30 minutes at 37° C. After 30 minutes, the supernatants were removed and the cells were lysed with 0.1 M HCl. The cells were lysed for 30 minutes on ice. After 30 minutes, lysates were pipetted off and placed into a 96 well HPLC plate and spun at 10,000×g for 10 minutes to remove any cell debris. […]
cGMP concentrations were determined from each sample using the LC/MS conditions in Table 4 and a calculated standard curve. EC50 values were calculated from concentration-response curves generated with GraphPad Prism Software. […]

[3] = oral administration at therapeutic dose levels; cited from earlier work
[4] = control reaction (1 M Tris-HCl) at 37° C.

Row | Structure (SMILES) | metabolism in control reaction [1, 4] | degradation rate compared with peptide 2 [1] | also measured
1 | CC(C)C[C@@H]1NC(=O)[C@H](CO)NC(=O)[C@@H]2CSSC[C@@H]3NC(=O)[C@H](C)NC(=O)[C@@H]4CCCN4C(=O)[C@H](CC(N)=O)NC(=O)[C@H](CSSC[C@H](N)C(=O)N2)NC(=O)[C@H](CSSC[C@@H](C(=O)O)NC(=O)CNC(=O)[C@H]([C@@H](C)O)NC3=O)NC1=O [Dephospho-Peptide 2, CCSLCCNPACTGC] (H-CCSLCCNPACTGC-OH; disulfide 1-6, 2-10, 5-13 (inferred); N-terminus and C-terminus assumed) | not metabolized | degraded faster | –
2 | CC(C)C[C@@H]1NC(=O)[C@H](COP(=O)(O)O)NC(=O)[C@@H]2CSSC[C@@H]3NC(=O)[C@H](C)NC(=O)[C@@H]4CCCN4C(=O)[C@H](CC(N)=O)NC(=O)[C@H](CSSC[C@H](N)C(=O)N2)NC(=O)[C@H](CSSC[C@@H](C(=O)O)NC(=O)CNC(=O)[C@H]([C@@H](C)O)NC3=O)NC1=O [Peptide 2, CCpSLCCNPACTGC] (H-CC[pS]LCCNPACTGC-OH; disulfide 1-6, 2-10, 5-13 (inferred); N-terminus and C-terminus assumed) | not metabolized | – | formation of metabolite dephospho-peptide 2 in control reaction [1, 4]: no dephospho-peptide 2 was formed
3 | CC(C)C[C@@H]1NC(=O)[C@H](CCC(=O)O)NC(=O)[C@@H]2CSSC[C@@H]3NC(=O)[C@H](C)NC(=O)[C@@H]4CCCN4C(=O)[C@H](CC(N)=O)NC(=O)[C@H](CSSC[C@H](N)C(=O)N2)NC(=O)[C@H](CSSC[C@@H](C(=O)N[C@@H](Cc2ccc(O)cc2)C(=O)O)NC(=O)CNC(=O)[C@H]([C@@H](C)O)NC3=O)NC1=O [Peptide 3, CCELCCNPACTGCY] (H-CCELCCNPACTGCY-OH; disulfide 1-6, 2-10, 5-13 (inferred); N-terminus and C-terminus assumed) | not metabolized | degraded faster | detection of peptide in mouse jejunum fluid ([1]; after 90 minutes, 37° C., 100 μg/mL): not detected; effect of CIP treatment (LC-MS) [2]: not affected
4 | CC(C)C[C@@H]1NC(=O)[C@H](COP(=O)(O)O)NC(=O)[C@@H]2CSSC[C@@H]3NC(=O)[C@H](C)NC(=O)[C@@H]4CCCN4C(=O)[C@H](CC(N)=O)NC(=O)[C@H](CSSC[C@H](NC(=O)[C@H](CC(=O)O)NC(=O)[C@@H](N)CC(=O)O)C(=O)N2)NC(=O)[C@H](CSSC[C@@H](C(=O)N[C@@H](Cc2ccc(O)cc2)C(=O)O)NC(=O)CNC(=O)[C@H]([C@@H](C)O)NC3=O)NC1=O [Peptide 5, DDCCpSLCCNPACTGCY] (H-DDCC[pS]LCCNPACTGCY-OH; disulfide 3-8, 4-12, 7-15 (inferred); N-terminus and C-terminus assumed) | – | – | pEC50 (GC-C): 7.83
5 | C[C@@H]1NC(=O)[C@@H]2CCCN2C(=O)[C@H](CC(N)=O)NC(=O)[C@@H]2CSSC[C@H](N)C(=O)N[C@H]3CSSC[C@H](NC1=O)C(=O)N[C@@H]([C@@H](C)O)C(=O)NCC(=O)N[C@H](C(=O)N[C@@H](Cc1ccc(O)cc1)C(=O)O)CSSC[C@H](NC(=O)[C@H](Cc1ccc(O)cc1)NC(=O)[C@H](CCC(=O)O)NC3=O)C(=O)N2 [linaclotide, Linaclotide] (H-CCEYCCNPACTGCY-OH; disulfide 1-6, 2-10, 5-13) | – | – | systemic levels after oral administration [3]: no detectable levels
